According to article PMC12490008 (Environmental Science & Technology, 2025):
*1 amine or outer side, *2 acyl side, *3 side chain or, on linkers, in order; H or OH if unused. Where a SMILES comes first, the peptide text is derived from it. Bridges are numbered along the chain shown (N, C = ends). [ ]: non-standard residue; d: D form. Adda = CO[C@@H](Cc1ccccc1)[C@@H](C)/C=C(C)/C=C/[C@H](N[*:1])[C@H](C)C(=O)[*:2]; dAsp(3S-Me) = C[C@H](C(=O)[*:3])[C@@H](N[*:1])C(=O)[*:2]; d(γGlu) = O=C(O)[C@@H](CCC(=O)[*:2])N[*:1]; hTyr = N[C@@H](CCc1ccc(O)cc1)C(=O)O; NMeA = CN[C@@H](C)C(=O)O; NMeDha = C=C(NC)C(=O)O; CO = O=C([*:1])[*:2]

Columns and labels:
[1] = system: River Chriesbach biofilm suspension
[2] = system: River Chriesbach biofilm suspension (100%)
[3] = system: River Chriesbach biofilm suspension (100%, 10%, 1%)
[4] = system: River Chriesbach river water
[5] = system: River Chriesbach biofilm suspensions

Compound | removal within 3 days [1] | 1.3d removal, 2% metabolite [2] | 1.3d removal, 10% metabolite [2] | 1.3d removal, 100% metabolite [2] | Half-lives (h), 10% metabolite [2] | Half-lives (h), 100% metabolite [2] | 1d removal, 1% biofilm [3] | 1d removal, 10% biofilm [3] | 1d removal, 100% biofilm [3] | Half-lives (h), 10% biofilm [3] | Half-lives (h), 100% biofilm [3] | 1d removal, River water [4] | Half-lives (h), River water [4] | Half-lives (h), 1% biofilm [3] | Half-lives (h), 2% metabolite [2] | Lag-time (h), 2% metabolite [2] | Lag-time (h), 10% metabolite [2] | Lag-time (h), 100% metabolite [2] | Lag-time (h), 100% biofilm [3] | Lag-time (h), River water [4] | further results
CC[C@H](C)[C@@H]1NC(=O)[C@H](NC(=O)N[C@@H](CCCNC(=N)N)C(=O)O)CCCCNC(=O)[C@H](Cc2ccccc2)NC(=O)[C@H](C)N(C)C(=O)[C@H](CCc2ccc(O)cc2)NC1=O [Anabaenopeptin F] ({Arg-CO}-[dK]I[hTyr][NMeA]F; lactam 1-C) | more than 50% | 100% | 99% | 62% | 10.8 h | 30.2 h | -13% | 28% | 83% | 106.3 h | 11.5 h | -44% | n.d.(decay) | – | – | – | – | – | – | – | –
CC[C@H](C)[C@@H]1NC(=O)[C@H](NC(=O)N[C@@H](Cc2c[nH]c3ccccc23)C(=O)O)CCCCNC(=O)[C@H](Cc2ccccc2)NC(=O)[C@H](C)N(C)C(=O)[C@H](CCc2ccc(O)cc2)NC1=O [Ferintoic acid B] ({Trp-CO}-[dK]I[hTyr][NMeA]F; lactam 1-C) | – | – | – | – | – | – | – | – | – | – | – | – | – | – | – | – | – | – | – | – | biodegradability in biofilm suspensions (in words) [5]: did not show detectable biotransformation
C=C1C(=O)N[C@H](C)C(=O)N[C@@H](CCc2ccc(O)cc2)C(=O)N[C@@H](C(=O)O)[C@H](C)C(=O)N[C@@H](CCCNC(=N)N)C(=O)N[C@@H](/C=C/C(C)=C/[C@H](C)[C@H](Cc2ccccc2)OC)[C@H](C)C(=O)N[C@@H](C(=O)O)CCC(=O)N1C [MC-HtyR] (R[Adda][d(γGlu)][NMeDha][dA][hTyr][dAsp(3S-Me)]-OH; lactam N-7) | 31% | 33% | 14% | 9% | – | 70.4 h | -13% | 19% | 17% | n.d.(decay) | 51.8 h | -36% | n.d.(decay) | n.d.(decay) | – | – | – | – | – | – | biodegradability in biofilm suspensions (in words) [5]: biodegradable
Aerucyclamide A | 20% | 64% | 43% | 21% | 34.9 h | 56.9 h | -14% | -2% | -2% | n.d.(decay) | 66.9 h | -23% | n.d.(decay) | n.d.(decay) | 28.4 h | 28.0 h | 34.8 h | 56.9 h | 66.8 h | n.d.(decay) | Lag-time (h), 1% biofilm [3]: n.d.(decay); Lag-time (h), 10% biofilm [3]: n.d.(decay)
Anabaenopeptin 871 | – | – | – | – | – | – | – | – | – | – | – | – | – | – | – | – | – | – | – | – | biodegradability in biofilm suspensions (in words) [5]: did not show detectable biotransformation
Anabaenopeptin A | 32-35% | 100% | 98% | 46% | 13.4 h | 34.9 h | -9% | 25% | 86% | 103.7 h | 11.5 h | -28% | n.d.(decay) | 177.1 h | 7.2 h | 6.7 h | 12.3 h | 34.8 h | 10.2 h | n.d.(decay) | Lag-time (h), 1% biofilm [3]: 98.1 h; Lag-time (h), 10% biofilm [3]: 102.8 h; expected river water half-lives [4]: 8.6 to 10.6 days
Anabaenopeptin B | – | 100% | 99% | 62% | 11.2 h | 30.0 h | -11% | 23% | 85% | 111.9 h | 10.4 h | -23% | n.d.(decay) | – | 6.2 h | 5.3 h | 10.3 h | 29.9 h | 8.5 h | n.d.(decay) | detectability at day 5 [1]: not detectable anymore; lag time (shoulder-log fitting) [1]: 2.3 days; initial removal at 1.3 days at decreased initial metabolite concentrations [2]: ~100%; Lag-time (h), 10% biofilm [3]: 111.7 h
Anabaenopeptin D | – | – | – | – | – | – | – | – | – | – | – | – | – | – | – | – | – | – | – | – | biodegradability in biofilm suspensions (in words) [5]: did not show detectable biotransformation
Cyanopeptolin 963A | 32-35% | 100% | 98% | 64% | – | 29.6 h | -26% | 5% | 56% | – | – | -81% | – | – | – | – | – | 29.5 h | – | – | –
Cyanopeptolin 1020 | – | 100% | 100% | 94% | 8.3 h | 9.9 h | – | 31% | 91% | 64.2 h | 9.0 h | – | 129.5 h | 112.1 h | 6.2 h | 5.7 h | 8.3 h | 0.4 h | 6.7 h | – | detectability at day 5 [1]: not detectable anymore; lag time (shoulder-log fitting) [1]: 1.6 days; lag time, 1% biofilm [3]: 4.1 days; lag time, 10% biofilm [3]: 2.5 days; degradation in ambient river water [4]: detectable degradation; lag time, ambient river water [4]: 5.4 days
Cyanopeptolin A | more than 50% | 100% | 100% | 97% | 6.5 h | 5.8 h | 10% | 57% | 98% | 35.9 h | 5.1 h | 3% | n.d.(decay) | 105.9 h | – | – | 6.1 h | 0.0 h | 0.8 h | n.d.(decay) | Lag-time (h), 1% biofilm [3]: 89.7 h; Lag-time (h), 10% biofilm [3]: 0.0 h
Cyanopeptolin B | more than 50% | 100% | 100% | 96% | – | 7.7 h | 16% | 49% | 100% | – | – | 2% | – | – | – | – | – | 0.0 h | – | – | –
Cyanopeptolin C | more than 50% | 100% | 100% | 82% | 8.5 h | 18.1 h | 1% | 29% | 80% | – | – | -3% | – | – | – | – | 8.5 h | 9.6 h | – | – | –
Cyanopeptolin D | more than 50% | 100% | 100% | 76% | 11.1 h | 27.2 h | 4% | 26% | 77% | – | 19.1 h | 11% | n.d.(decay) | – | 7.4 h | 7.3 h | 10.5 h | 27.2 h | 18.7 h | n.d.(decay) | –
Oscillamide Y | 32-35% | 100% | 98% | 51% | 12.8 h | 33.9 h | 1% | 28% | 86% | 101.7 h | 11.1 h | -24% | n.d.(decay) | 191.5 h | 7.1 h | 6.8 h | 11.7 h | 33.8 h | 9.4 h | n.d.(decay) | Lag-time (h), 1% biofilm [3]: 0.0 h; Lag-time (h), 10% biofilm [3]: 99.6 h; expected river water half-lives [4]: 7.2 to 8.0 days
